# Test results published in US10358436B2, “Kinase inhibitors and method of treating cancer” (University Health Network, priority 2010, dated 2019).
# What was measured:
# Abl = Abl (Homo sapiens (Human), UniProt P00519); experiment: Kinase selectivity assay (CEREP HTRF panel); format: biochemical
# Akt1/PKBalpha = Akt1/PKBalpha (Homo sapiens (Human), UniProt P31749); experiment: Kinase selectivity assay (CEREP HTRF panel); format: biochemical
# BMX kinase (Etk) = BMX kinase (Etk) (Homo sapiens (Human), UniProt P51813); experiment: Kinase selectivity assay (CEREP HTRF panel); format: biochemical
# Brk = Brk (Homo sapiens (Human), UniProt Q13882); experiment: Kinase selectivity assay (CEREP HTRF panel); format: biochemical
# CaMK2alpha = CaMK2alpha (Homo sapiens (Human), UniProt Q9UQM7); experiment: Kinase selectivity assay (CEREP HTRF panel); format: biochemical
# CaMK4 = CaMK4 (Homo sapiens (Human), UniProt Q16566); experiment: Kinase selectivity assay (CEREP HTRF panel); format: biochemical
# CHK1 = CHK1 (Homo sapiens (Human), UniProt O14757); experiment: Kinase selectivity assay (CEREP HTRF panel); format: biochemical
# CHK2 = CHK2 (Homo sapiens (Human), UniProt O96017); experiment: Kinase selectivity assay (CEREP HTRF panel); format: biochemical
# c-Met kinase = c-Met kinase (Homo sapiens (Human), UniProt P08581); experiment: Kinase selectivity assay (CEREP HTRF panel); format: biochemical
# CSK = CSK (Homo sapiens (Human), UniProt P41240); experiment: Kinase selectivity assay (CEREP HTRF panel); format: biochemical
# EphB4 kinase = EphB4 kinase (Homo sapiens (Human), UniProt P54760); experiment: Kinase selectivity assay (CEREP HTRF panel); format: biochemical
# ERK1 = ERK1 (Homo sapiens (Human), UniProt P27361); experiment: Kinase selectivity assay (CEREP HTRF panel); format: biochemical
# ERK2 (P42mapk) = ERK2 (P42mapk) (Homo sapiens (Human), UniProt P28482); experiment: Kinase selectivity assay (CEREP HTRF panel); format: biochemical; details: read-out: % Inhibition @ 10 uM, ERK (P42mapk)
# FGFR4 kinase = FGFR4 kinase (Homo sapiens (Human), UniProt P22455); experiment: Kinase selectivity assay (CEREP HTRF panel); format: biochemical
# FLT-1 kinase (VEGFR1) = FLT-1 kinase (VEGFR1) (Homo sapiens (Human), UniProt P17948); experiment: Kinase selectivity assay (CEREP HTRF panel); format: biochemical
# FLT3 = FLT3 (Homo sapiens (Human), UniProt P36888); experiment: Kinase selectivity assay (CEREP HTRF panel); format: biochemical
# Protocol: (§2) The assays were performed using standard HTRF assay methods as documented by CEREP against the human orthologues of Ab1 kinase, Akt1/PKBa, AMPKa, BMX kinase (Etk), Brk, CaMK2a, CaMK4, CDC2/CDK1 (cycB), CHK1, CHK2, c-Met kinase, CSK, EphB4 kinase, ERK1, ERK2 (P42mapk), FGFR2 kinase, FGFR4 kinase, FLT-1 kinase (VEGFR1), FLT-3 kinase, Fyn kinase, IGF1R kinase, IRK (InsR), JNK 2, KDR kinase (VEGFR2), Lck kinase, Lyn kinase, MAPKAPK2, MEK1/MAP2K1, p38a kinase, p38d kinase, p38 g kinase, PDGFRb kinase, PDK1, PKA, PKCa, PKCb1, PKCb2, PKCg, Ret kinase, ROCK2, RSK2, Src kinase, Syk, and TRKA (Table 3).
# Fyn kinase = Fyn kinase (Homo sapiens (Human), UniProt P06241); experiment: Kinase selectivity assay (CEREP HTRF panel); format: biochemical
# IGF1R kinase = IGF1R kinase (Homo sapiens (Human), UniProt P08069); experiment: Kinase selectivity assay (CEREP HTRF panel); format: biochemical
# IRK (InsR) = IRK (InsR) (Homo sapiens (Human), UniProt P06213); experiment: Kinase selectivity assay (CEREP HTRF panel); format: biochemical
# JNK 2 = JNK 2 (Homo sapiens (Human), UniProt P45984); experiment: Kinase selectivity assay (CEREP HTRF panel); format: biochemical
# KDR kinase (VEGFR2) = KDR kinase (VEGFR2) (Homo sapiens (Human), UniProt P35968); experiment: Kinase selectivity assay (CEREP HTRF panel); format: biochemical
# Protocol: as §2
# Lck = Lck (Homo sapiens (Human), UniProt P06239); experiment: Kinase selectivity assay (CEREP HTRF panel); format: biochemical
# Lyn kinase = Lyn kinase (Homo sapiens (Human), UniProt P07948); experiment: Kinase selectivity assay (CEREP HTRF panel); format: biochemical
# MAPKAPK2 = MAPKAPK2 (Homo sapiens (Human), UniProt P49137); experiment: Kinase selectivity assay (CEREP HTRF panel); format: biochemical
# MEK1/MAP2K1 = MEK1/MAP2K1 (Homo sapiens (Human), UniProt Q02750); experiment: Kinase selectivity assay (CEREP HTRF panel); format: biochemical
# p38alpha kinase = p38alpha kinase (Homo sapiens (Human), UniProt Q16539); experiment: Kinase selectivity assay (CEREP HTRF panel); format: biochemical
# p38delta kinase = p38delta kinase (Homo sapiens (Human), UniProt O15264); experiment: Kinase selectivity assay (CEREP HTRF panel); format: biochemical
# p38gamma kinase = p38gamma kinase (Homo sapiens (Human), UniProt P53778); experiment: Kinase selectivity assay (CEREP HTRF panel); format: biochemical
# PDGFRbeta kinase = PDGFRbeta kinase (Homo sapiens (Human), UniProt P09619); experiment: Kinase selectivity assay (CEREP HTRF panel); format: biochemical
# PDK1 = PDK1 (Homo sapiens (Human), UniProt O15530); experiment: Kinase selectivity assay (CEREP HTRF panel); format: biochemical
# PKA = PKA (Homo sapiens (Human), UniProt P17612); experiment: Kinase selectivity assay (CEREP HTRF panel); format: biochemical
# PKCalpha = PKCalpha (Homo sapiens (Human), UniProt P17252); experiment: Kinase selectivity assay (CEREP HTRF panel); format: biochemical
# PKCbeta 1 = PKCbeta 1 (Homo sapiens (Human), UniProt P05771); experiment: Kinase selectivity assay (CEREP HTRF panel); format: biochemical
# PKCbeta 2 = PKCbeta 2 (Homo sapiens (Human), UniProt P05771); experiment: Kinase selectivity assay (CEREP HTRF panel); format: biochemical
# PKCgamma = PKCgamma (Homo sapiens (Human), UniProt P05129); experiment: Kinase selectivity assay (CEREP HTRF panel); format: biochemical
# Ret kinase = Ret kinase (Homo sapiens (Human), UniProt P07949); experiment: Kinase selectivity assay (CEREP HTRF panel); format: biochemical
# ROCK2 = ROCK2 (Homo sapiens (Human), UniProt O75116); experiment: Kinase selectivity assay (CEREP HTRF panel); format: biochemical
# RSK2 = RSK2 (Homo sapiens (Human), UniProt P51812); experiment: Kinase selectivity assay (CEREP HTRF panel); format: biochemical
# Src kinase = Src kinase (Homo sapiens (Human), UniProt P12931); experiment: Kinase selectivity assay (CEREP HTRF panel); format: biochemical
# TRKA = TRKA (Homo sapiens (Human), UniProt P04629); experiment: Kinase selectivity assay (CEREP HTRF panel); format: biochemical
# Aurora A = Aurora A (Homo sapiens (Human), UniProt O14965); experiment: Aurora A inhibition assay (Z-Lyte); format: biochemical
# AMPKalpha = experiment: Kinase selectivity assay (CEREP HTRF panel); format: biochemical, human
# HUV-EC-C cells = experiment: In vitro angiogenesis assay (tube formation); format: cell-based; details: 4 hr
# Protocol: Activity against these RTKs can result in antiangiogenic activity which is associated with slowed tumor growth and/or tumor regression. To measure the antiangiogenic effects of compounds of the invention, selected examples were tested in an angiogenesis assay as described below.
# HUV-EC-C cells were obtained from the American Type Culture Collection (ATCC, CRL-1730), and were used at early passage for the assay. The in vitro Angiogenesis Assay Kit (Chemicon) was used according to the manufacturer's recommendation. An ice-cold mixture of ECMatrix was transferred into a precooled 96-well plate. After the matrix solution had solidified (>1 hr incubation at 37° C.), 8,000 cells were mixed with the appropriate inhibitor concentration (in 100 microliters EGM-2) and plated into each well. The clinical antiangiogenic, Sutent was used as a positive control in comparison to a compound of the invention, A13. After incubation at 37° C. for 4 hr, tube formation was inspected. Two methods, pattern recognition and branch point counting, were used to quantify the progression of angiogenesis and expressed as a percentage of the control tube count (FIGS. 1 and 2).
# PLK2 = PLK2 (Homo sapiens (Human), UniProt Q9NYY3); experiment: PLK2 inhibition assay (Z-Lyte); format: biochemical
# Protocol: (§1) PLK2 inhibition was determined using the Z-Lyte assay kit from Invitrogen (cat #PV3802). The assay was performed using the recommended manufacturer's instructions with 60 μM ATP and 133 nM PLK2 (Invitrogen cat #PV4204). The % inhibition values were determined according to the manufacturer's directions and IC50 values were obtained using a non-linear 4 point logistic curve fit (XLfit4, IDBS)
# PLK3 = PLK3 (Homo sapiens (Human), UniProt Q9H4B4); experiment: PLK3 inhibition assay (Z-Lyte); format: biochemical
# Protocol: as §1, with “PLK3” for “PLK2”, “100” for “60”, “21” for “133”, “#PV3812).” for “#PV4204).”, “IDBS).” for “IDBS)”
# CDC2/CDK1 (cycB) = CDC2/CDK1 (cycB) (Homo sapiens (Human), UniProt P06493); experiment: Kinase selectivity assay (CEREP HTRF panel); format: biochemical
# PLK1 = PLK1 (Homo sapiens (Human), UniProt P53350); experiment: PLK1 inhibition assay (Z-Lyte); format: biochemical
# Protocol: PLK1 inhibition was determined using the Z-Lyte assay kit from Invitrogen (cat #PV3802). The assay was performed using the recommended manufacturer's instructions with 25 μM ATP and 8 nM PLK1 (Invitrogen cat #PV3501). The % inhibition values were determined according to the manufacturer's directions and IC50 values were obtained using a non-linear 4 point logistic curve fit (XLfit4, IDBS)
# Chain of KDR kinase (VEGFR2) (P35968 20-1356): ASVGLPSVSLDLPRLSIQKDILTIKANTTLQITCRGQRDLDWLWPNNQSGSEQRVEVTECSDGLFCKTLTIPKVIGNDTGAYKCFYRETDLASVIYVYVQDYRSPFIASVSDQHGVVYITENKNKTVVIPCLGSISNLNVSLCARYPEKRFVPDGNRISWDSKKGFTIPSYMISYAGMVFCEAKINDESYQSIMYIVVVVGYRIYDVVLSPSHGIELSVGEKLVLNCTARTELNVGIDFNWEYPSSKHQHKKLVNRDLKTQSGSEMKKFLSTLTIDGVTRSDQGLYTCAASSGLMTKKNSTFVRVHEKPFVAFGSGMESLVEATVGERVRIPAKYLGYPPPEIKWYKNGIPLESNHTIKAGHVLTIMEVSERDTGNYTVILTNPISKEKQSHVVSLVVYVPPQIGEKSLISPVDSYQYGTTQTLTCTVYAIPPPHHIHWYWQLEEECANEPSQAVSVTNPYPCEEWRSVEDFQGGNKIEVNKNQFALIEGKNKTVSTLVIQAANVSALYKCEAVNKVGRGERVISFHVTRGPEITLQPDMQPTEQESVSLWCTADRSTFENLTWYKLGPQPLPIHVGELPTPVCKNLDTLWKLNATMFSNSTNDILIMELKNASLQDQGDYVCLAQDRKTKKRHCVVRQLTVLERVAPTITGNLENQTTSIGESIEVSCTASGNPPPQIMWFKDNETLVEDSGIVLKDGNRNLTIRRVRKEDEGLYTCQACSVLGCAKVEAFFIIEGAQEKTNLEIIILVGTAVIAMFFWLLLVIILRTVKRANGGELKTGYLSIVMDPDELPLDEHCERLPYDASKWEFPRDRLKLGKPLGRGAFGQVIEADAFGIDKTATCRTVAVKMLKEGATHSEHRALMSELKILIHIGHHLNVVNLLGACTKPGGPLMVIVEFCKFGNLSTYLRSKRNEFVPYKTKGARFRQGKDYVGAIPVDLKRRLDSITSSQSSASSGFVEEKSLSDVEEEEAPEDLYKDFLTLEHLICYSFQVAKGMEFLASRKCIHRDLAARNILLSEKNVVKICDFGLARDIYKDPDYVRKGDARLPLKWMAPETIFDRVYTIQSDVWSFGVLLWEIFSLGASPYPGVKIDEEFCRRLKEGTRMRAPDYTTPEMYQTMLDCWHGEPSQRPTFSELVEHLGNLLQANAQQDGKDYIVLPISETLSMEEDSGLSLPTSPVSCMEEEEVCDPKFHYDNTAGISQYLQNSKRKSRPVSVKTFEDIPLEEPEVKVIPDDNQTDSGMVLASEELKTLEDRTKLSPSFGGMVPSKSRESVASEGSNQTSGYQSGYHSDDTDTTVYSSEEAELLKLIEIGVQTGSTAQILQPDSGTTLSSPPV
# Chain of FLT3 (P36888 27-993): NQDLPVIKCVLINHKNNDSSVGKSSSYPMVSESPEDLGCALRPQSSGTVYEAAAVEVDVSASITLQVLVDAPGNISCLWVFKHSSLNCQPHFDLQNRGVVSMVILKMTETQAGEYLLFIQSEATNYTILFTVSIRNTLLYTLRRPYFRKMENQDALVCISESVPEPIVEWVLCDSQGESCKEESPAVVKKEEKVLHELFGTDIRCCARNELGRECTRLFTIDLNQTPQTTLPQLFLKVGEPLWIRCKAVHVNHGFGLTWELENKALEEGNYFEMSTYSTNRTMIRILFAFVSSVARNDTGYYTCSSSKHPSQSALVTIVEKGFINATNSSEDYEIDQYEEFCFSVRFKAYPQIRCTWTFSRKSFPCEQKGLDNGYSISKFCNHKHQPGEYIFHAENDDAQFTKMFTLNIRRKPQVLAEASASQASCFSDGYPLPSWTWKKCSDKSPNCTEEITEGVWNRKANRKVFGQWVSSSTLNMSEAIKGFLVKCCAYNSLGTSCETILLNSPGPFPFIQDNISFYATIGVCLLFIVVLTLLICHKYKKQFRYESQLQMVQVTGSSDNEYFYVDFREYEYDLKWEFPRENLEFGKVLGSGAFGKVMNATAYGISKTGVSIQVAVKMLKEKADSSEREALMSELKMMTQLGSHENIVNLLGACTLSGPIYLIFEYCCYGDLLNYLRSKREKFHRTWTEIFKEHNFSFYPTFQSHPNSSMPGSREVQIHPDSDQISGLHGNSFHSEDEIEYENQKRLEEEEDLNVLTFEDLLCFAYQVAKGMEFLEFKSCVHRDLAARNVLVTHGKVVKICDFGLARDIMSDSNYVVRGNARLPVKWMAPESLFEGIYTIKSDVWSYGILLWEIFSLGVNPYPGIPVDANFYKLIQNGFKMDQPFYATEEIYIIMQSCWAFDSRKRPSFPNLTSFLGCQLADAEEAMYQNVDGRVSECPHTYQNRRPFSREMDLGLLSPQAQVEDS
# Chain of TRKA (P04629 33-796): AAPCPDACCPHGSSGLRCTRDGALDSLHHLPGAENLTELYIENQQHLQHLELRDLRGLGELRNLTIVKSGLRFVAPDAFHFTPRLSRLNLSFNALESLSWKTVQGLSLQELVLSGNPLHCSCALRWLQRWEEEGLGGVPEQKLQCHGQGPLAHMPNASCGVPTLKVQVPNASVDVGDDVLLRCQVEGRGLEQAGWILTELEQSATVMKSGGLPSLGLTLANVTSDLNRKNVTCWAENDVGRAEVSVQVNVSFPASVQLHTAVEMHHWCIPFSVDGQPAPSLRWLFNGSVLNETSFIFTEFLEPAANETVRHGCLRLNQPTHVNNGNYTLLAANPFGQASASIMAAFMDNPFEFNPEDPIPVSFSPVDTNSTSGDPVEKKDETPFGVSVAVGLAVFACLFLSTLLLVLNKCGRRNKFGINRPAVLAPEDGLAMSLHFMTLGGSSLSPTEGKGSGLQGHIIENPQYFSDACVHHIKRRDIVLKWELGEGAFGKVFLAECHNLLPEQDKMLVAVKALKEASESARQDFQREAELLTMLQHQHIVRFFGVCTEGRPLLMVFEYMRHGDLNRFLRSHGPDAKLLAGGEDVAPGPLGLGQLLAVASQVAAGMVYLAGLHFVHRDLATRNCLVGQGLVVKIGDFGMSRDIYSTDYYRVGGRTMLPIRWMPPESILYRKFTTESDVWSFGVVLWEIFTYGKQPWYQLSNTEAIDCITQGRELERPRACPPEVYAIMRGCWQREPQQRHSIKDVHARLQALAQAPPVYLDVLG
# Chain of CSK (P41240 whole entry): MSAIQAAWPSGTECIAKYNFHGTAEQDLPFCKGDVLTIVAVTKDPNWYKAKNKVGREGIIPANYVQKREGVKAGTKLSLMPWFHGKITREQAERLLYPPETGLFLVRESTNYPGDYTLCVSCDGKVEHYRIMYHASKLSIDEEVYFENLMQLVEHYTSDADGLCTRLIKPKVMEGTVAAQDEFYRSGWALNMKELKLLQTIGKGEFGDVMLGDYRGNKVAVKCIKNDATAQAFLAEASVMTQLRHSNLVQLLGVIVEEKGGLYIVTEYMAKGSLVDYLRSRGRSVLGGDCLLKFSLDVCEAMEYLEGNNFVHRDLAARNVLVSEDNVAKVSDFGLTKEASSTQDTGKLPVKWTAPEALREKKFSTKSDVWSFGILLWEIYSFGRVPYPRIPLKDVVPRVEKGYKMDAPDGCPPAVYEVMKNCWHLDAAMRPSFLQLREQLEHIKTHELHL
# Chain of BMX kinase (Etk) (P51813 whole entry): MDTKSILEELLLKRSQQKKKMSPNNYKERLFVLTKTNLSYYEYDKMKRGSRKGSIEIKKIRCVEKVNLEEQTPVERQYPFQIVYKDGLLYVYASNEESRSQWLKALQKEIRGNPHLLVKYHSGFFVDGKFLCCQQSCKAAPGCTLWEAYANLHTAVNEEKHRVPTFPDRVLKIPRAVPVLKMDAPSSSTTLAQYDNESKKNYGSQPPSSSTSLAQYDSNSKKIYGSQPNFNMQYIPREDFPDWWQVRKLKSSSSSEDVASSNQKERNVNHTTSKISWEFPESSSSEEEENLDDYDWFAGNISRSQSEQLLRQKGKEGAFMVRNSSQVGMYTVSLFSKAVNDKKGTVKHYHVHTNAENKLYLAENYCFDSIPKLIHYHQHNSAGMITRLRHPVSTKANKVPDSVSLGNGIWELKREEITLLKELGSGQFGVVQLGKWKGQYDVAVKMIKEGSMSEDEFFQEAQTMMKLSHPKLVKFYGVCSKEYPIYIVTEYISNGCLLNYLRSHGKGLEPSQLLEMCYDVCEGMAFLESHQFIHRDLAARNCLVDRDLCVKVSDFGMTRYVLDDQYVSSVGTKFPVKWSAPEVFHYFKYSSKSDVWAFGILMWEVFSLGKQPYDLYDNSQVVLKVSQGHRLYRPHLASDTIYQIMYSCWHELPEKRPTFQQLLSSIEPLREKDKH
# Chain of PDK1 (O15530 whole entry): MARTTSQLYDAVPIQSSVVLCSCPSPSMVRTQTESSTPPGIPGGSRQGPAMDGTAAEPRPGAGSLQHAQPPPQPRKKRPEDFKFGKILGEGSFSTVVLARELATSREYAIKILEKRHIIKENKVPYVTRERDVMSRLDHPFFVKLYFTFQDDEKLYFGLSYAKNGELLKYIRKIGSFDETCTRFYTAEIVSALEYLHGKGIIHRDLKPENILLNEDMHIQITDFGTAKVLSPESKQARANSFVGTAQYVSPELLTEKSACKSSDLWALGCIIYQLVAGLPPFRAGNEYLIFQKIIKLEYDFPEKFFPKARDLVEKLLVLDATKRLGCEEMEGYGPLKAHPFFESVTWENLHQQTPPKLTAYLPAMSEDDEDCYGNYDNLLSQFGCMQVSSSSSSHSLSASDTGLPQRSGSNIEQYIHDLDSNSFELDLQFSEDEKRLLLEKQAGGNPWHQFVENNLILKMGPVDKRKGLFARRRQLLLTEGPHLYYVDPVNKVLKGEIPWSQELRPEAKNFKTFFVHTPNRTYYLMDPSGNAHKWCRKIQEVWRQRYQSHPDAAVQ
structure (smiles),measurement,setting,value
"O=C1Nc2ccccc2[C@]12C[C@H]2c1ccc2cn[nH]c2c1 (racemic) [Example A2, (1R*,2S*)-2-(1H-indazol-6-yl)spiro[cyclopropane-1,3′-indolin]-2′-one]",inhibition at 10 µM,Abl,3%
same,inhibition at 10 µM,Akt1/PKBalpha,-2%
same,inhibition at 10 µM,BMX kinase (Etk),-3%
same,inhibition at 10 µM,Brk,1%
same,inhibition at 10 µM,CaMK2alpha,41%
same,inhibition at 10 µM,CaMK4,7%
same,inhibition at 10 µM,CHK1,-4%
same,inhibition at 10 µM,CHK2,-10%
same,inhibition at 10 µM,c-Met kinase,15%
same,inhibition at 10 µM,CSK,9%
same,inhibition at 10 µM,EphB4 kinase,11%
same,inhibition at 10 µM,ERK1,4%
same,inhibition at 10 µM,ERK2 (P42mapk),9%
same,inhibition at 10 µM,FGFR4 kinase,0%
same,inhibition at 10 µM,FLT-1 kinase (VEGFR1),1%
same,inhibition at 10 µM,FLT3,62%
same,inhibition at 10 µM,Fyn kinase,7%
same,inhibition at 10 µM,IGF1R kinase,20%
same,inhibition at 10 µM,IRK (InsR),4%
same,inhibition at 10 µM,JNK 2,-2%
same,inhibition at 10 µM,KDR kinase (VEGFR2),14%
same,inhibition at 10 µM,Lck,17%
same,inhibition at 10 µM,Lyn kinase,26%
same,inhibition at 10 µM,MAPKAPK2,-4%
same,inhibition at 10 µM,MEK1/MAP2K1,4%
same,inhibition at 10 µM,p38alpha kinase,6%
same,inhibition at 10 µM,p38delta kinase,-10%
same,inhibition at 10 µM,p38gamma kinase,4%
same,inhibition at 10 µM,PDGFRbeta kinase,4%
same,inhibition at 10 µM,PDK1,4%
same,inhibition at 10 µM,PKA,0%
same,inhibition at 10 µM,PKCalpha,-2%
same,inhibition at 10 µM,PKCbeta 1,1%
same,inhibition at 10 µM,PKCbeta 2,4%
same,inhibition at 10 µM,PKCgamma,7%
same,inhibition at 10 µM,Ret kinase,14%
same,inhibition at 10 µM,ROCK2,39%
same,inhibition at 10 µM,RSK2,17%
same,inhibition at 10 µM,Src kinase,-10%
same,inhibition at 10 µM,TRKA,54%
"COc1ccc2c(c1)[C@]1(C[C@H]1c1ccc3c(-c4ccc(N5CCN(C)CC5)nc4)n[nH]c3c1)C(=O)N2 (relative stereo) [Example A13, (1R*,2S*)-5′-Methoxy-2-(3-(6-(4-methylpiperazin-1-yl)pyridin-3-yl)-1H-indazol-6-yl)spiro[cyclopropane-1,3′-indolin]-2′-one]",inhibition at 1 µM,Aurora A,< 50%
same,"% Inhibition @ 10 uM, AMPKalpha",AMPKalpha,8%
same,inhibition at 10 µM,FLT3,86%
same,inhibition at 10 µM,KDR kinase (VEGFR2),6%
same,anti-angiogenic effect (tube formation),HUV-EC-C cells,anti-agiogenic effects at submicromolar concentrations
"O=C1Nc2ccccc2[C@]12C[C@H]2c1ccc2c(/C=C/c3ccncc3)n[nH]c2c1 (relative stereo) [Example A22, 1R*,2S*)-(E)-2-(3-(2-(pyridin-4-yl)vinyl)-1H-indazol-6-yl)spiro-[cyclo-propane-1,3′-indolin]-2′-one]",inhibition at 10 µM,PLK2,≤ 50%
same,inhibition at 10 µM,PLK3,≤ 50%
same,inhibition at 10 µM,Abl,97%
same,inhibition at 10 µM,Akt1/PKBalpha,-1%
same,inhibition at 10 µM,BMX kinase (Etk),71%
same,inhibition at 10 µM,Brk,41%
same,inhibition at 10 µM,CaMK4,-8%
same,inhibition at 10 µM,CDC2/CDK1 (cycB),93%
same,inhibition at 10 µM,CHK1,37%
same,inhibition at 10 µM,CHK2,4%
same,inhibition at 10 µM,c-Met kinase,97%
same,inhibition at 10 µM,CSK,99%
same,inhibition at 10 µM,EphB4 kinase,99%
same,inhibition at 10 µM,ERK1,8%
same,inhibition at 10 µM,ERK2 (P42mapk),11%
same,inhibition at 10 µM,FGFR4 kinase,56%
same,inhibition at 10 µM,FLT3,100%
same,inhibition at 10 µM,Fyn kinase,87%
same,inhibition at 10 µM,IGF1R kinase,22%
same,inhibition at 10 µM,IRK (InsR),21%
same,inhibition at 10 µM,JNK 2,32%
same,inhibition at 10 µM,KDR kinase (VEGFR2),98%
same,inhibition at 10 µM,Lck,97%
same,inhibition at 10 µM,Lyn kinase,99%
same,inhibition at 10 µM,MAPKAPK2,4%
same,inhibition at 10 µM,MEK1/MAP2K1,12%
same,inhibition at 10 µM,p38alpha kinase,32%
same,inhibition at 10 µM,p38delta kinase,-22%
same,inhibition at 10 µM,p38gamma kinase,-15%
same,inhibition at 10 µM,PDGFRbeta kinase,88%
same,inhibition at 10 µM,PDK1,69%
same,inhibition at 10 µM,PKA,-6%
same,inhibition at 10 µM,PKCalpha,7%
same,inhibition at 10 µM,PKCbeta 1,0%
same,inhibition at 10 µM,PKCbeta 2,11%
same,inhibition at 10 µM,PKCgamma,8%
same,inhibition at 10 µM,Ret kinase,99%
same,inhibition at 10 µM,ROCK2,88%
same,inhibition at 10 µM,RSK2,48%
same,inhibition at 10 µM,Src kinase,26%
same,inhibition at 10 µM,TRKA,100%
same,anti-angiogenic effect (tube formation),HUV-EC-C cells,anti-agiogenic effects at submicromolar concentrations
"CN(C)Cc1ccc(/C=C/c2n[nH]c3cc([C@@H]4C[C@@]45C(=O)Nc4ccccc45)ccc23)cc1 (relative stereo) [Example A23, (1R*,2S*)-(E)-2-(3-(4-((dimethylamino)methyl)styryl)-1H-indazol-6-yl)spiro[cyclopropane-1,3′-indolin]-2′-one 2,2,2-trifluoroacetate]",inhibition at 10 µM,PLK1,≤ 50%
same,inhibition at 10 µM,PLK2,≤ 50%
same,inhibition at 10 µM,PLK3,≤ 50%
same,anti-angiogenic effect (tube formation),HUV-EC-C cells,anti-agiogenic effects at submicromolar concentrations
